Test results reported in article PMC12310023 (PLOS Neglected Tropical Diseases, 2025).

Experiments:
C. parvum CDPK1 = C. parvum CDPK1 (Cryptosporidium parvum, UniProt A3FQ16); assay: CpCDPK1 enzyme inhibition; type: biochemical
Source text: […]. […] All other methods are specified in S1 File.

NLuc C. parvum = NLuc C. parvum growth in HCT-8 cells (UW); type: cell-based; settings: Cryptosporidium parvum
Cytotoxicity = settings: human, HEPG2 hepatocyte cell line
Hepatocyte stability = settings: dog
A3 = biological target: T1, A3 (Homo sapiens, UniProt P0DMS8); assay: Cerep binding assay; set-up: Cerep (Eurofins, France); settings: agonist radioligand, mean, read-out: % inhibition of control specific binding
T1 sequence (P0DMS8 1-318): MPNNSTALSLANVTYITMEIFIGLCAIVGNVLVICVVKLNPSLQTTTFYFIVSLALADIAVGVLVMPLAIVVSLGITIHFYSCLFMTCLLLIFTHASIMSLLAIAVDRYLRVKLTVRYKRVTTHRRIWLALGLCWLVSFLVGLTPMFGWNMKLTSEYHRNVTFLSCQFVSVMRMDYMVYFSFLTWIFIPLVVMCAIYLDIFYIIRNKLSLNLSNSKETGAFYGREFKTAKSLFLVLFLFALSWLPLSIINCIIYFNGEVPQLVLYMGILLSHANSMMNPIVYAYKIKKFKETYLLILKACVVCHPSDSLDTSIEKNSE

[1] = tested on: micronuclei in interphase cells; assay: In vitro micronucleus (IVMN) test
CYP2B6 = biological target: T2, CYP2B6 (Homo sapiens, UniProt P20813); assay: CYP reaction phenotyping, recombinant supersomes
T2 sequence (P20813 1-491): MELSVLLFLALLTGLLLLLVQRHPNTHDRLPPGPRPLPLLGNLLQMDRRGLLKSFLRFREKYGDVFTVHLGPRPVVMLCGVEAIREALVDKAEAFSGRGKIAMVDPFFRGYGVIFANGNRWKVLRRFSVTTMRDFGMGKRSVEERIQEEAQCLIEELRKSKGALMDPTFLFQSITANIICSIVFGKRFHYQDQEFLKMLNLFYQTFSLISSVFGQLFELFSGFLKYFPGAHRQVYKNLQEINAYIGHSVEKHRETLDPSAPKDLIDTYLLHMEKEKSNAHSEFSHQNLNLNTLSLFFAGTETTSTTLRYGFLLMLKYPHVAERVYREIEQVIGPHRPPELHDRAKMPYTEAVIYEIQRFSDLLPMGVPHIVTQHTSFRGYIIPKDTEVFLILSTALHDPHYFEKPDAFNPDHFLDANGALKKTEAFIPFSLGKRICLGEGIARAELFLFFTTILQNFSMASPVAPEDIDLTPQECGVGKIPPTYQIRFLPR

C. parvum CDPK1, sequence (A3FQ16 1-538): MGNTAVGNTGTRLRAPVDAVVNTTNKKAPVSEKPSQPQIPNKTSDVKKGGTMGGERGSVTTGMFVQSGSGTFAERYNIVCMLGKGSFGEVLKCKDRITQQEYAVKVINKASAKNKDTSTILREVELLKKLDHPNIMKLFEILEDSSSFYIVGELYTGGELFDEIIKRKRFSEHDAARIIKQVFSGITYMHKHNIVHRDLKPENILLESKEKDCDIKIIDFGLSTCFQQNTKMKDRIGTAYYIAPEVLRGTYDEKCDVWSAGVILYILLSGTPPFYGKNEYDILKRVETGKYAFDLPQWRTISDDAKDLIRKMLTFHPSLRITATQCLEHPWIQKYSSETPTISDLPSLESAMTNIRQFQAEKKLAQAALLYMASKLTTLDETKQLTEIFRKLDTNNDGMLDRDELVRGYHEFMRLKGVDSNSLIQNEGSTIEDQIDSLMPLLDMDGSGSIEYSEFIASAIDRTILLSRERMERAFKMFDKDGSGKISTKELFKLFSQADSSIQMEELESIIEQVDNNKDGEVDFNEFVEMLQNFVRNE

For `CC1(C)Cn2nc(-c3ccc4cc(OC5CC5)ccc4c3)c(C(N)=O)c2NC1O` (stereo not drawn) [M2], the IC50 (C. parvum CDPK1) was 92.5 nM, the “fold reduction in potency compared to BKI-1708” value (C. parvum CDPK1) was 132 fold and the EC50 (NLuc C. parvum) was 730 nM. The CC50 (Cytotoxicity) was 13400 nM, the “LM:hepatocyte CLint_scaled ratio” value (Hepatocyte stability; liver microsomes and primary hepatocytes) was less than 2.5 and the CLint scaled (Hepatocyte stability; primary hepatocytes) was 13.3 mL/min/kg. The half-life (Hepatocyte stability; primary hepatocytes) was 6.85 h, the hepatocyte CLint (Hepatocyte stability; primary hepatocytes) was 3.4 µL/min/1e6 cells and the inhibition at 10 µM (A3) was 72.6%. The IVMN test result [1] was “negative”, the “% contribution” value (CYP2B6) was 5.1% and the CLint (CYP2B6) was 0.044 µL/min/pmol.
